Structures are written as SMILES. Like-named read-outs stand apart in the source and are kept apart here. Marks after values point to notes of the source that are not given here.

Data set [1] in a line: Oral pharmacokinetics in mice. In kind it is in vivo. The conditions noted are these: mouse, plasma, 1-mg/kg dose level, Day 1, read-out: Plasma trough concentration at 24 hours (minimal mean target plasma concentration). The procedure: The pharmacokinetic evaluations in mice were adjuncts to the primary pharmacodynamic xenograft studies. The evaluations in rats included toxicokinetic assessments in single-dose, 7-day, and 28-day toxicology studies as well as a mass-balance study after a single oral dose of ^14C-Compound #10. The evaluations in dogs included toxicokinetic assessments in 7-day and 28-day toxicology studies. In the studies performed, rodents were dosed once daily with Compound #10 formulated in vehicle and administered via oral gavage.

The nature of data set [2]: in vivo. As to conditions: Sprague Dawley, rat.
Experimental: (§4) The L23 vehicle was used. […] All studies in the toxicology program were conducted according to GLP regulations.
Data set [3] in a line: in vivo. The conditions noted are these: beagle, dog.
Experimental: as §4
The nature of data set [4]: Single-dose oral toxicity study in rats. The conditions noted are these: Sprague Dawley, rat, in vivo, single oral gavage, read-out: NOAEL for 1 day of dosing. As to the method: (§1) The L23 vehicle was used.
Because maximal exposure occurred at 100 mg/kg, this dose is considered the NOAEL for 1 day of dosing.

A short description of data set [5]: Phase 1 multiple-dose study in healthy volunteers: pharmacokinetics (Table 28). In kind it is in vivo. As to conditions: human, plasma, oral; for concentration at 24 h: 24 hours after first daily dose, read-out: C24 h; for AUC(0-t): read-out: AUC0-24; for Cmax: read-out: Cmax (after PM dose). As to the method:
The study was performed under the oversight of the French health authorities. The study was not performed under an IND.
Methods. The trial was a Phase 1, randomized, escalating multiple dose, single center study conducted in 2 stages.
Capsules contained 2 mg or 20 mg of active substance.
Capsules contained 20 mg or 25 mg of active substance.
Noncompartmental methods were used to compute Tmax, Cmax, and AUC. Dose proportionality and sex effect were evaluated using ANOVA on log transformed PK parameters using dose, sex, and dose by sex as fixed factors.

Data set [6] is described as follows: Trough plasma concentrations of Compound #10 in HT1080 xenograft mice (HPLC-MS/MS). In kind it is in vivo. The conditions noted are these: athymic nude, mouse, oral, 1 mg/kg BID.
Data set [7] can be described thus: in vivo. The conditions noted are these: both, beagle, dog.
Experimental: as §4
A short description of data set [8]: 7-day oral toxicity study in rats. The conditions noted are these: Sprague Dawley, rat, in vivo. The procedure:
as §1
Maximal exposures occurred at a dose of 120 mg/kg/day.

Data set [9] relates to HT1080 xenografts. In words: Tumor growth in nude mice bearing HT1080 xenografts. The class given is in vivo, athymic nude mice. As to the method:
(§2) In all of these experiments, HT1080 cells (5×10^6 cells/mouse) were implanted subcutaneously in male athymic nude mice. When tumors had become established, mice were divided into groups (10 mice/group). […] Tumor size was measured by calipers at the beginning and end of treatment. At the completion of Compound administration, the mice were sacrificed, and excised tumors were assayed by ELISA for intratumoral VEGF or other angiogenic factors using methods analogous to those described in Section 9.1.1.1.
Experimental Study Design. HT1080 cells (5×10^6 cells/mouse) were implanted subcutaneously in male athymic nude mice.
Tumor size was measured using calipers at periodic intervals during the study (data shown in Section 9.2.2). […] The study was ended after 18 days, when the vehicle treated tumors reached a mean volume of ˜1755 mm^3. […] Mice were sacrificed, and excised tumors were homogenized in buffer containing protease inhibitors. Both terminal intratumoral and pathologic plasma human VEGF levels were measured using an ELISA that recognizes human VEGF121 and VEGF165 (as described in Section 9.1.1.1). Intratumoral VEGF levels were normalized to the total tumor protein concentration, while pathologic plasma human VEGF levels were expressed in pg/mL of plasma.
Experimental Design. HT1080 cells (5×10^6 cells/mice) were implanted subcutaneously into male athymic nude mice. Treatment with vehicle alone or Compound 1205 was initiated when the median tumor volume was approximately 311±88 mm^3. Table 7 and Table 9 (study design #21 and #23) provide the study design for assessing tumor and plasma pathologic VEGF concentrations—each group in each study included eight (8) mice. When the tumors in vehicle-treated mice had reached the target size of ˜1200 mm^3 for study #21 and ˜1500 mm^3 for study #23, all mice in the study were sacrificed, and excised tumors were homogenized in buffer containing protease inhibitors. Both intra-tumor and pathologic plasma human VEGF levels were measured using an ELISA that recognizes human VEGF121 and VEGF165. Intra-tumor VEGF levels were normalized to the total tumor protein concentration and pathologic plasma VEGF levels were expressed in pg/mL. Because smaller tumors produce less VEGF per mg of tumor protein, intra-tumor VEGF levels were normalized to tumor size.
Experimental Design. HT1080 cells (5×10^6 cells/mouse) were implanted subcutaneously in male athymic nude mice. […] For comparison, Compound #10 was included in this study.
(§3) Experimental Design. HT1080 cells (5×10^6 cells/mouse) were implanted subcutaneously in male athymic nude mice.
Tumor size was measured by calipers immediately pre-treatment and at the time of sacrifice on Day 1, 2, or 3 (5 mice per group per day). At sacrifice, the plasma was collected for assay of pathologic human VEGF concentration using an ELISA that recognizes human VEGF121 and VEGF165 (as described in Section 9.1.1.1).

The test system of data set [10] is D245MG-PR cells. In words: D245MG-PR (procarbazine-resistant) lethality model of GBM, monotherapy and with temozolomide. The class given is in vivo, Balb/C nu/nu mice. The conditions noted are these: Cpd #10 10 mg/kg oral QD from Day 3; TMZ 250 mg/kg IP from Day 5 (control 70 days). The procedure: Forty (40) female Balb/C nu/nu mice at least 6 weeks of age but not more than 12 weeks at study initiation, weighing at study initiation 18-28 g, were implanted intracranially. D245MG-PR cells (procarbazine-resistant cells derived from an adult human GBM tumor) in a medium using a 25-gauge needle. Mice were anesthetized with Ketamine/Rompun cocktail prior to IC implantation. The day of tumor cell implantation was designated as Day 0. Animals were randomly assigned to treatment groups (10 mice per treatment group).
Mice in Group 1 were administered L21 vehicle alone orally once per day beginning on Day 3. […] Mice in Group 3 were administered 250 mg/kg TMZ intraperitoneally (IP) beginning on Day 5.
Body weights were measured the day that dosing was initiated and once a week thereafter. Observations were made on animals that died or were sacrificed at an unscheduled interval. Animals were sacrificed if moribund.

In data set [11] the test system is human VEGF121 and VEGF165. Kind of data set: Intratumoral and plasma human VEGF (ELISA) in nude mice bearing HT1080 xenografts. In kind it is in vivo, athymic nude mice. The conditions noted are these: Day 1; Compound #10 10 mg/kg oral QD, doxorubicin 6 mg/kg IP, bevacizumab 5 mg/kg IP single bolus. As to the method:
as §2
Tumor size was measured using calipers at periodic intervals during the study (data shown in Section 9.2.2). […] The study was ended after 18 days, when the vehicle treated tumors reached a mean volume of ˜1755 mm^3. […] Mice were sacrificed, and excised tumors were homogenized in buffer containing protease inhibitors. Both terminal intratumoral and pathologic plasma human VEGF levels were measured using an ELISA that recognizes human VEGF121 and VEGF165 (as described in Section 9.1.1.1). […]
Experimental Design. […] Both intra-tumor and pathologic plasma human VEGF levels were measured using an ELISA that recognizes human VEGF121 and VEGF165. […]
Tumor size was measured by calipers immediately pre-treatment and at the time of sacrifice on Day 1, 2, or 3 (5 mice per group per day). […]
A general note: In xenograft studies the graft and the host belong to different species.

Data set [12] concerns HT1080 xenografts. In words: BrdU labeling of tumor cells from HT1080 xenografts in nude mice. The class given is in vivo, athymic nude mice. As to conditions: Days 1-3; Compound #10 10 mg/kg oral QD, doxorubicin, bevacizumab. As to the method:
as §3
The mice were sacrificed 3 hours later, and the tumors collected. A single cell suspension was prepared from the tumor cells. The cells were permeabilized and an antibody to BrdU was used to stain cells that had entered S phase during the labeling period. The proportion of cells actively synthesizing DNA was determined by cell sorting.
(In general: Dividing cells build labelled thymidine or BrdU into new DNA.)

The test system of data set [13] is HT1080 cells. Kind of data set: Cell cycle analysis in HT1080 cells, propidium iodide flow cytometry (Table 24; reversibility). The class given is cell-based, human. As to conditions: tumor cells, data not shown. As to the method: Experimental Design. […] After treatment, cells were trypsinized, and stained with propidium iodide (PI) dye to measure DNA content of individual cells by flow cytometry. Output comprised histograms showing relative DNA content in 10,000 cells.
While compounds which cause greater than 20% of the cells to accumulate in S-phase at 100 nM are considered active, a larger percentage of cells may be accumulated in S-phase at lower doses depending on the Compound, as shown in FIG. 12 for example.
A general note: A flow cytometer gives signals particle by particle.

The test system of data set [14] is soluble VEGF121 and VEGF165. Kind of data set: Inhibition of soluble VEGF production in human tumor cell lines, ELISA EC50 (Table 4). In kind it is cell-based. The conditions noted are these: tumor cells, data not shown. As to the method: Study Design. […] In these experiments, cultures were established under normoxic conditions (21% oxygen). […] Cells requiring induction of VEGF production were incubated under hypoxic conditions (1% oxygen). At the completion of treatment, the conditioned media were collected and assayed by ELISA (as described in Section 9.1.1.1) for soluble VEGF121 and VEGF165 isoforms; results were calculated as percentage inhibition relative to vehicle treated controls. EC50 values were calculated from the dose concentration response curves.

Setting [15] is: both sexes, 0.3 mg/kg, Stage 1, 0.3 mg/kg BID, Day 1, mean.
Where [16] appears, read: both sexes, 0.3 mg/kg, Stage 1, 0.3 mg/kg BID, Day 7, mean.
Where [17] appears, read: both sexes, 0.6 mg/kg, Stage 1, 0.6 mg/kg BID, Day 1, mean.

Usually NOAEL stands for the highest tested level that showed no adverse finding. For orientation: Cmax means the highest concentration seen after dosing. As a reminder, the Tmax is the time at which the peak concentration occurs. For the compound `COc1ccc([C@H]2c3[nH]c4ccc(Cl)cc4c3CCN2C(=O)Oc2ccc(Cl)cc2)cc1` (racemic) [Compound #10], the concentration at 24 h is 100 to 150 ng/mL in [1]; 94 ng/mL in data set [5] (both sexes, 0.3 mg/kg BID, Stage 1, 0.3 mg/kg BID, Day 1, mean); 210 ng/mL in data set [5] (both sexes, 0.3 mg/kg BID, Stage 1, 0.3 mg/kg BID, Day 7, mean); 260 ng/mL in data set [5] (both sexes, 0.6 mg/kg BID, Stage 1, 0.6 mg/kg BID, Day 1, mean); 540 ng/mL in [5] (both sexes, 0.6 mg/kg BID, Stage 1, 0.6 mg/kg BID, Day 7, mean). Besides, the NOAEL at 28 days in data set [2] was found to be 12 mg/kg/day; in [7], 30 mg/kg/day. Further, the no-observed-adverse-effect level (NOAEL) at 7 days in data set [3] is 60 mg/kg/day; in data set [8] (female rats), 120 mg/kg/day; in data set [8] (male rats), 40 mg/kg/day. Further, the no observed adverse effect level (NOAEL) at 1 day in [4] was found to be 100 mg/kg. The AUC(0-t) in data set [5] (setting [15]) is 4310 ng·h/mL; in data set [5] (setting [16]), 8440 ng·h/mL; in data set [5] (setting [17]) it was 10100 ng·h/mL; in [5] (both sexes, Stage 1, 0.6 mg/kg BID, Day 7, mean), 18600 ng·h/mL. The Cmax in [5] (setting [15]) came out at 480 ng/mL; in [5] (setting [16]), 590 ng/mL; in data set [5] (setting [17]), 970 ng/mL; in data set [5] (both sexes, 0.6 mg/kg, Stage 1, 0.6 mg/kg BID, Day 7, mean), 1160 ng/mL. The time of peak concentration (Tmax) was 3.16 h in data set [5] (both sexes, 0.3 mg/kg, Stage 1, 0.3 mg/kg BID, Day 1, mean, read-out: Tmax (after PM dose)); 3.17 h in data set [5] (both sexes, 0.6 mg/kg, Stage 1, 0.6 mg/kg BID, Day 1, mean, read-out: Tmax (after PM dose)); approximately 3 h in data set [5] (both sexes, Stage 1 and Stage 2, read-out: Mean Tmax); 2.5 h in data set [5] (both, […], Stage 2, […] TID, Day 1, mean, read-out: Tmax (after PM dose)); 3 h in data set [5] (both, Stage 1, 1.2 mg/kg BID, Day 1, mean, read-out: Tmax (after PM dose)). For the same compound, the concentration at 16 h in [6] (16 hours after the first day of dosing (n=3), read-out: Mean trough plasma concentration) came out at 130 ng/mL; in [6] (16 hours after the first day of dosing (n=3), read-out: Mean trough plasma concentration (value in brackets)), 280 ng/mL; in data set [6] (16 hours after the last dose on Day 18 (n=4), read-out: Steady state mean trough plasma concentration), 820 ng/mL.
As for `O=C(Oc1ccc(Cl)cc1)N1CCc2c([nH]c3ccc(Cl)cc23)[C@@H]1c1ccc(OCC[C@H](O)CO)cc1` [Compound 1205], the “Mean difference in tumor growth rate at the Day that the vehicle-treated tumors taken off study (%)” value is on record as 80%** in [9] (Study 21, 3 mg/kg QD, Day 14); 62%** in [9] (Study 22, 0.5 mg/kg QD, Day 11); 75%** in [9] (Study 22, 3 mg/kg QD, Day 11); 59%** in data set [9] (Study 23, 1 mg/kg QD, Day 14); 76%** in data set [9] (Study 24a, 10 mg/kg QD, Day 11); 28% ^ in data set [9] (Study 24b, 0.3 mg/kg QD, Day 15).
`Cn1nnc2c(C(N)=O)ncn2c1=O` [TEMODAR, temozolomide]: the Median survival time in data set [10] came out at 86 days.
In the case of `COc1cccc2c1C(=O)c1c(O)c3c(c(O)c1C2=O)C[C@@](O)(C(=O)CO)C[C@@H]3O[C@H]1C[C@H](N)[C@H](O)[C@H](C)O1` [doxorubicin], in [11], the “Pathologic plasma human VEGF levels vs control” value is on record as “numerically lower than in control animals by Day 1”. The “BrdU staining of tumor cells (fraction in S phase)” value in [12] is given as “decreased the percentage of tumor cells staining with BrdU”.
As to `NC(Cn1ccc(=O)c(O)c1)C(=O)O` (centres unmarked) [mimosine], the “Cell cycle delay or prolongation” value in data set [13] was “does not delay or prolong the cell cycle or reduce VEGF production”. Moreover, the VEGF production entry in data set [14] is listed as “does not delay or prolong the cell cycle or reduce VEGF production”.
